According to patent US8735387B2, “Oxazolopyrimidines as Edg-1 receptor agonists” (Sanofi, priority 2008, dated 2014):

Each compound was assayed against T1, human Edg-1 receptor (Homo sapiens, UniProt P21453) (assay: GTP-γ-S assay using human Edg-1 receptors (scintillation proximity assay, membrane preparation from CHO Flp-In cell line)). Conditions: example compound at 10 μM; relative to 10 μM S1P; GTP-γ-S SPA, human Edg-1 membranes.
T1 construct: expressed in transfected cells; membrane preparation
Format: biochemical
Outline: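 Membranes came from Flp-In CHO cells constitutively expressing human Edg-1 carrying an N-terminal FLAG tag. Compound-induced receptor activation was read as GTP-γ-S binding in a scintillation proximity format.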

T1 sequence (P21453 whole entry): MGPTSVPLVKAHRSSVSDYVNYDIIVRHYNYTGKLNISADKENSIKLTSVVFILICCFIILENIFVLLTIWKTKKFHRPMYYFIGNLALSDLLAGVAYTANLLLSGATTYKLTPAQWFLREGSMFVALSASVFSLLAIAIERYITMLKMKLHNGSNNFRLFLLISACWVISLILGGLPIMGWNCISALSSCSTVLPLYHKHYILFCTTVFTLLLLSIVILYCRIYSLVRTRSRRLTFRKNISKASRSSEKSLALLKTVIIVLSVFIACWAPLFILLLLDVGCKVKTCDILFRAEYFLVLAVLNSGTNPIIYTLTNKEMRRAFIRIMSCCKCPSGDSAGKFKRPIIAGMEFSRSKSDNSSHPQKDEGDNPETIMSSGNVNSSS

First: CCOc1nc(Cc2ccc(Cl)cc2)nc2oc(-c3cccc(OCC(=O)O)c3)nc12 [Example 310]
Second: CCOc1nc(Cc2ccc(Cl)cc2)nc2oc(-c3cc(C)c(OCC(=O)NCCC(=O)O)c(C)c3)nc12 [Example 314]
The “% Activation (Edg-1 receptor activation in percent of the activation by 10 μM S1P)” value of the first is lower: 87% for the first, 96% for the second.

Going from `CCOc1nc(Cc2ccc(Cl)cc2)nc2oc(-c3cc(C)c(OCC(=O)N4CCC[C@H]4C(=O)O)c(C)c3)nc12` [Example 311] to `CCOc1nc(Cc2ccc(Cl)cc2)nc2oc(-c3cc(C)c(OCC(=O)N4CC[C@@H]5C[C@@]54C(=O)O)c(C)c3)nc12` [Example 318], the “% Activation (Edg-1 receptor activation in percent of the activation by 10 μM S1P)” value rises from 78% to 101%.

Going from `CCCOc1nc(Cc2ccc(Cl)cc2)nc2oc(-c3cc(C)c(OCC(O)CNC4CCN(C)CC4)c(C)c3)nc12` (centres unmarked) [Example 313] to `CCCOc1nc(Cc2ccc(Cl)cc2)nc2oc(-c3cc(C)c(OCC4CC4)c(C)c3)nc12` [Example 315], the “% Activation (Edg-1 receptor activation in percent of the activation by 10 μM S1P)” value falls from 143% to 79%.

First: CCCOc1nc(Cc2ccc(Cl)cc2)nc2oc(-c3cc(C)c(OCC(=O)CC)c(C)c3)nc12 [Example 316]
Second: CCCOc1nc(Cc2ccccc2)nc2oc(-c3cccc(OC)c3)nc12 [Example 317]
The “% Activation (Edg-1 receptor activation in percent of the activation by 10 μM S1P)” value of the first is lower: 70% for the first, 105% for the second.
